Type in all cases: cell-based
One experiment has as its target T1, ATM (Homo sapiens, UniProt Q13315).
T1 construct: endogenous in cells; host or cells: HT29 cells (ECACC #85061109)
The experiment is described as follows: ATM cellular potency assay (pATM Ser1981 in irradiated HT29 cells). The note with it: 1 h compound, X-ray irradiation, pATM (Ser1981); Table 2; read-out: Assay a) ATM Cell IC50.

A further experiment concerns the target T2, ATR (Homo sapiens, UniProt Q13535).
T2 construct: endogenous in cells; host or cells: HT29 cells (ECACC #85061109)
The experiment is described as follows: ATR cellular potency assay (pChk1 Ser345 in HT29 cells after 4NQO). The following applies: pChk1 (Ser 345); Table 2; read-out: Assay b) ATR Cell IC50.

The next experiment concerns the target T3, mTOR (Homo sapiens, UniProt P42345).
T3 construct: phosphorylation of the Akt protein at Ser473 (AKT lies downstream of PI3Kα in the signal transduction pathway) in the MDA-MB-468 cells; endogenous in cells; host or cells: MDA-MB-468 cells (ATCC HTB 132)
As to the kind of experiment: mTOR cellular potency assay (phospho-AKT Ser473 in MDA-MB-468 cells). The note with it: MDA-MB-468 cells, 2 h, phospho-AKT Ser473; Table 2; read-out: Assay d) mTOR Cell IC50. An excerpt: The following assays were used to measure the effects of the compounds of the present invention: a) ATM cellular potency assay; b) PI3K cellular potency assay; c) mTOR cellular potency assay; d) ATR cellular potency assay. During the description of the assays, generally: • i. The following abbreviations have been used: 4NQO=4-Nitroquinoline N-oxide; Ab=Antibody; BSA=Bovine Serum Albumin; CO2=Carbon Dioxide; DMEM=Dulbecco's Modified Eagle Medium; DMSO=Dimethyl Sulphoxide; EDTA=Ethylenediaminetetraacetic Acid; EGTA=Ethylene Glycol Tetraacetic Acid; ELISA=Enzyme-linked Immunosorbent Assay; EMEM=Eagle's Minimal Essential Medium; FBS=Foetal Bovine Serum; h=H(s); HRP=Horseradish Peroxidase; i.p.=intraperitoneal; PBS=Phosphate buffered saline; PBST=Phosphate buffered saline/Tween; TRIS=Tris(Hydroxymethyl)aminomethane; MTS reagent: [3-(4,5-dimethylthiazol-2-yl)-5-(3-carboxymethoxyphenyl)-2-(4-sulfophenyl)-2H-tetrazolium, inner salt, and an electron coupling reagent (phenazine methosulfate) PMS; s.c. sub-cutaneously. • ii. IC50 values were calculated using a smart fitting model in Genedata.
This assay was used to measure mTOR inhibition in cells. The aim of the phospho-AKT cell based mechanism of action assay using the Acumen Explorer is to identify inhibitors of either PI3Kα or mTOR-Rictor (Rapamycin insensitive companion of mTOR). This is measured by any decrease in the phosphorylation of the Akt protein at Ser473 (AKT lies downstream of PI3Kα in the signal transduction pathway) in the MDA-MB-468 cells following treatment with compound.
MDA-MB-468 cells (human breast adenocarcinoma #ATCC HTB 132) were seeded at 1500 cells/well in 40 μl of DMEM containing 10% FBS and 1% glutamine into Greiner 384 well black flat-bottomed plates. Cell plates were incubated for 18 h in a 37° C. incubator before dosing with compounds of Formula (I) in 100% DMSO using acoustic dispensing. Compounds were dosed in a 12 point concentration range into a randomised plate map. Control wells were generated either by dosing of 100% DMSO (max signal) or addition of a reference compound (a PI3K-62 inhibitor) that completely eliminated the pAKT signal (min control). Plates were incubated at 37° C. for 2 h; cells were then fixed by the addition of […] of a 3.7% formaldehyde solution. After 30 minutes the plates were washed with PBS using a Tecan PW384 plate washer. Wells were blocked and cells permeabilised with the addition of 40 μl of PBS containing 0.5% Tween20 and 1% Marvel™ (dried milk powder) and incubated for 60 minutes at r.t. The plates were washed with PBS containing 0.5% (v/v) Tween20 and 20 μl rabbit anti-phospho AKT Ser473 (Cell Signalling Technologies, #3787) in same PBS-Tween+1% MarvelTM was added and incubated overnight at 4° C.
Plates were washed 3 times with PBS+0.05% Tween 20 using a Tecan PW384. 20 μl of secondary antibody Alexa Fluor 488 anti-Rabbit (Molecular Probes, # A11008) diluted in PBS+0.05% Tween20 containing 1% Marvel™ was added to each well and incubated for 1 h at r.t. Plates were washed three times as before then 20 μl PBS added to each well and plates sealed with a black plate sealer.
The plates were read on an Acumen plate reader as soon as possible, measuring green fluorescence after excitation with 488 nm laser. Using this system IC50 values were generated and quality of plates was determined by control wells. Reference compounds were run each time to monitor assay performance.

Each structure is given as a SMILES string.

T1 sequence (Q13315 whole entry): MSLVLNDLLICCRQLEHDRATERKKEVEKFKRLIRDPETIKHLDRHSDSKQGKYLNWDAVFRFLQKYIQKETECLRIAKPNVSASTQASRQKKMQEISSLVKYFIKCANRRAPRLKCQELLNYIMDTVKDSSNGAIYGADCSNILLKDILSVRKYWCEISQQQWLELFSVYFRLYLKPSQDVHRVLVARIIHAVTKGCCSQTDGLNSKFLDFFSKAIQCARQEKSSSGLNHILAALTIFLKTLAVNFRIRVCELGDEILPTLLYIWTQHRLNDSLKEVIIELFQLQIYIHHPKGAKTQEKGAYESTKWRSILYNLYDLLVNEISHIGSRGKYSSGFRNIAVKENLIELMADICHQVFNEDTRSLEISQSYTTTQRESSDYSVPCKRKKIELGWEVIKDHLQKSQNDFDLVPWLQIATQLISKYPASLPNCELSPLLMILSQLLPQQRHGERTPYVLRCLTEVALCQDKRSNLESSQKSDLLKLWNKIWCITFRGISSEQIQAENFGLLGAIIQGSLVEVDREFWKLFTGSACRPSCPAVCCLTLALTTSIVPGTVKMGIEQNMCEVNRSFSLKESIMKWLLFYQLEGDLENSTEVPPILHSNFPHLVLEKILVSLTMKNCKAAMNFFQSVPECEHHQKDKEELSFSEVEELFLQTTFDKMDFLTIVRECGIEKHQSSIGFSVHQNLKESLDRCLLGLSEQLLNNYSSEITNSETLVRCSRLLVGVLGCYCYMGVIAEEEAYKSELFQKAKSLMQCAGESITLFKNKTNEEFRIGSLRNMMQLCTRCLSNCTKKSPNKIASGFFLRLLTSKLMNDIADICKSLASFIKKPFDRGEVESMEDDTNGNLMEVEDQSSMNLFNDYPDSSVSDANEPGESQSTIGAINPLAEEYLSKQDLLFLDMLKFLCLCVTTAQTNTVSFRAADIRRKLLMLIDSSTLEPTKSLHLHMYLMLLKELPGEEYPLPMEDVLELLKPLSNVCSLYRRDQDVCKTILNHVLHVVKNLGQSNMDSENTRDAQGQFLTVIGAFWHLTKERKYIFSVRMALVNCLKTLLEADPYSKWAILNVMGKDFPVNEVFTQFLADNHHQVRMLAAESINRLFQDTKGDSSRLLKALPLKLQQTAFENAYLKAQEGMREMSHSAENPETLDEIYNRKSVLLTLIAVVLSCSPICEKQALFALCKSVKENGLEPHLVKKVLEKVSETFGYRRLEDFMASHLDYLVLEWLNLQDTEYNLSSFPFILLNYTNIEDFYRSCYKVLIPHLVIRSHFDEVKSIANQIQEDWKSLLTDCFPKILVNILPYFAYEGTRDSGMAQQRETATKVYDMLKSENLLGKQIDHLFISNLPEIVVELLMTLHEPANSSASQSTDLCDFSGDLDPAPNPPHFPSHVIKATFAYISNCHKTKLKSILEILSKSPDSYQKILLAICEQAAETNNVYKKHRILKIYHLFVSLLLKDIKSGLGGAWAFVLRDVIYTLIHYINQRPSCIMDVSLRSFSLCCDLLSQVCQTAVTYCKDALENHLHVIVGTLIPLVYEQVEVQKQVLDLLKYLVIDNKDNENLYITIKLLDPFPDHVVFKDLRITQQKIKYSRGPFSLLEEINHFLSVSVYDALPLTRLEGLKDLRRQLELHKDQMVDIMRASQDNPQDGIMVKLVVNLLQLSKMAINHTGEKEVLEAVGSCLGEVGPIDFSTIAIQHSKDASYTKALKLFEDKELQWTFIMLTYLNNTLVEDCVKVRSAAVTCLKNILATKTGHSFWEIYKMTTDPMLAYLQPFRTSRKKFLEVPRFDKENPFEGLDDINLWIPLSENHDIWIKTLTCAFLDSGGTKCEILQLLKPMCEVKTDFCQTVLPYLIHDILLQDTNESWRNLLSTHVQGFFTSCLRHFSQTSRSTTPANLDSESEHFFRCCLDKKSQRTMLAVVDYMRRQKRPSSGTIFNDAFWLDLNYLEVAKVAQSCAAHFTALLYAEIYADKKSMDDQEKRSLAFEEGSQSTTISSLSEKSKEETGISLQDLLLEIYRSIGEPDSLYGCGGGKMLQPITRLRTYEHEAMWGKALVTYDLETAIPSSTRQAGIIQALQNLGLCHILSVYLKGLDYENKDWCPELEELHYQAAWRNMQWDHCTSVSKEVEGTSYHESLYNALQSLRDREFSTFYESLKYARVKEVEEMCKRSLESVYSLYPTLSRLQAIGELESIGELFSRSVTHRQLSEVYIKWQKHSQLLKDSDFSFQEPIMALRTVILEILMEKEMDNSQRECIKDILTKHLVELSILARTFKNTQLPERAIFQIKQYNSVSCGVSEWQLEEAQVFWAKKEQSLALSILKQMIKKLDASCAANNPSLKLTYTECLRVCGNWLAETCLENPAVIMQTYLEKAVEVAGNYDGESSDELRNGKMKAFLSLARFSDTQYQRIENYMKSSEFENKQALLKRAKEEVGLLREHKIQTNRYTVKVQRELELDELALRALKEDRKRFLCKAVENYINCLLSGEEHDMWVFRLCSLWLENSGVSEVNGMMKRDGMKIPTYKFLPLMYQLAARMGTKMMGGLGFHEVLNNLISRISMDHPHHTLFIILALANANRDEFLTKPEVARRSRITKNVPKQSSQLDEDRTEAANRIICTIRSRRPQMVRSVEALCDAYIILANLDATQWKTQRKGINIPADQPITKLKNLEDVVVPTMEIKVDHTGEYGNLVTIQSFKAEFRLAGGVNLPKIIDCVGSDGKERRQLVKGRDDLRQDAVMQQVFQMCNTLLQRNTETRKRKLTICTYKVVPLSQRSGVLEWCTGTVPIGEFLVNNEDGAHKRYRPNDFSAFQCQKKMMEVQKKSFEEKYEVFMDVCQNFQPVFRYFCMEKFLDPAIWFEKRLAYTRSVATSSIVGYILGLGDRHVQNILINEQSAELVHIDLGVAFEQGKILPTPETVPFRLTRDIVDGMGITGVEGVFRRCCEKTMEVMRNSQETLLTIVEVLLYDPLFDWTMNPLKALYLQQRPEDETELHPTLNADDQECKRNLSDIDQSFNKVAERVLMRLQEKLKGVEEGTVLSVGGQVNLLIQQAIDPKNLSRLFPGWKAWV

Broadly, the IC50 is the concentration at which inhibition is half-maximal. Turning to `CN(C)C1CCN(c2ccc(-c3ccc4ncc5c(c4c3)n([C@@H]3CCCOC3)c(=O)n5C)cn2)CC1` [Example 34, 8-[6-[4-(dimethylamino)-1-piperidyl]-3-pyridyl]-3-methyl-1-[(3R)-tetrahydropyran-3-yl]imidazo[4,5-c]quinolin-2-one], the IC50 at ATM was 0.395 nM; at ATR, greater than 30000 nM; on mTOR, 2000 nM.
As for `CN(C)C1CCN(c2ccc(-c3cc4c(cc3F)ncc3c4n([C@@H]4CCCOC4)c(=O)n3C)cn2)CC1` [Example 40, 8-[6-[4-(dimethylamino)-1-piperidyl]-3-pyridyl]-7-fluoro-3-methyl-1-[(3R)-tetrahydropyran-3-yl]imidazo[4,5-c]quinolin-2-one], the figures for the IC50 on ATM, on ATR and at mTOR were 3.24 nM, greater than 30000 nM and 22100 nM, respectively.
`CN(C)C1CCN(c2ccc(-c3ccc4ncc5c(c4c3)n([C@H]3CCCOC3)c(=O)n5C)cn2)CC1` [Example 35, 8-[6-[4-(dimethylamino)-1-piperidyl]-3-pyridyl]-3-methyl-1[(3S)-tetrahydropyran-3-yl]imidazo[4,5-c]quinolin-2-one]: the IC50 at ATM was 1.4 nM; on ATR, greater than 30000 nM; on mTOR it was 16500 nM.

The values are drawn from US20180280377A1, “Imidazo[4,5-c]quinolin-2-one Compounds and Their Use in Treating Cancer” (ASTRAZENECA AB, priority 2015, published 2018).
